# Results from PMC7614683, “A small molecule PI3Kα activator for cardioprotection and neuroregeneration” (Nature, 2023).
# Legend:
# [1] = test system: PI3Kα-WT A549 cells; assay: TIRF microscopy of PIP3 reporter, PI3Kα-WT A549; type: cell-based, human; details: 1938, then BYL719 0.5 μM
# Procedure: Phosphoinositide reporters used were GFP-PH-ARNO^I303Ex2 (PIP3 reporter[41]) and mCherry-cPH-TAPP1x3 (PI(3,4)P2 reporter[41]). TIRF microscopy allows selective imaging of the small cell volume, including the plasma membrane, directly adjacent to the coverslip onto which cells have been seeded. HeLa or A549 cells were seeded in Matrigel-coated (Corning #354230; diluted in Opti-MEM at 1:50) 8-well chamber slides (glass bottom, 1.55 refractive index; Thermo Fisher Scientific #155409) at a density of 5,000 cells/well. […]
# Image analyses of total reporter intensities were performed with the Fiji open source image analysis package. The region of interest (ROI) corresponding to the footprint of the individual cell across time points were defined using minimal intensity projection to select only pixels present across all time points, following prior subtraction of camera noise (rolling ball method, radius = 500 pixels) and xy drift correction, intensity levels over time were measured. […] All other quantifications were performed using the open source software R/RStudio. The values plotted in Fig. 3d (iii) represent mean±SEM, following signal scaling to minimum and maximum values of the normalised fluorescence intensity for each time point (Fn(t)). […]
# [2] = molecular target: T1, full length p110α/p85α (Homo sapiens, UniProt P42336); assay: Surface plasmon resonance; type: binding; details: immobilized p110α/p85α; read-out: Kd for PI3Kα by surface plasmon resonance
# T1 construct: Full-length human p110α was expressed either in a complex with full-length human p85α (for HTS, biochemistry and HDX-MS); 6xHis tag followed by TEV protease site (N); host or cells: Spodoptera frugiperda Sf9, baculovirus
# Procedure: SPR was performed with a Biacore T200, using CM7-sensor chips (Cytiva). Both reference control and analyte channels were equilibrated in HBS-P (Cytiva) supplemented with 5% (v/v) DMSO at 20°C. Full length p110α/p85α was immobilised onto the chip surface via amide coupling using the supplied kit (Cytiva) to reach an RU value of approximately 25,000 RU. Serial dilutions (1:2) of 1938 starting from 500 μM were injected over the chip for 60 s at 30 μL/min, with a 60 sec dissociation time. The data were double-referenced to the response on a blank but similarly modified flow channel and a buffer-only injection was subtracted. Any differences in the DMSO concentrations between the sample and buffer were corrected using the in-built solvent correction protocol. After reference and buffer signal correction, sensogram data were fitted using Prism 9.4.1 (GraphPad Software Inc). The responses at equilibrium (Req) of the were then fitted to a 1:1 binding model with a linear non-specific phase to determine Kd: (1) Req=(CRmax/C+Kd)+DC+B where C is the analyte concentration and Rmax is the maximum response at saturation, D is a non-specific response and B is the background resonance. Data were replotted correcting for the linear non-specific response. The binding was performed in triplicate.
# T1 sequence (P42336 whole entry): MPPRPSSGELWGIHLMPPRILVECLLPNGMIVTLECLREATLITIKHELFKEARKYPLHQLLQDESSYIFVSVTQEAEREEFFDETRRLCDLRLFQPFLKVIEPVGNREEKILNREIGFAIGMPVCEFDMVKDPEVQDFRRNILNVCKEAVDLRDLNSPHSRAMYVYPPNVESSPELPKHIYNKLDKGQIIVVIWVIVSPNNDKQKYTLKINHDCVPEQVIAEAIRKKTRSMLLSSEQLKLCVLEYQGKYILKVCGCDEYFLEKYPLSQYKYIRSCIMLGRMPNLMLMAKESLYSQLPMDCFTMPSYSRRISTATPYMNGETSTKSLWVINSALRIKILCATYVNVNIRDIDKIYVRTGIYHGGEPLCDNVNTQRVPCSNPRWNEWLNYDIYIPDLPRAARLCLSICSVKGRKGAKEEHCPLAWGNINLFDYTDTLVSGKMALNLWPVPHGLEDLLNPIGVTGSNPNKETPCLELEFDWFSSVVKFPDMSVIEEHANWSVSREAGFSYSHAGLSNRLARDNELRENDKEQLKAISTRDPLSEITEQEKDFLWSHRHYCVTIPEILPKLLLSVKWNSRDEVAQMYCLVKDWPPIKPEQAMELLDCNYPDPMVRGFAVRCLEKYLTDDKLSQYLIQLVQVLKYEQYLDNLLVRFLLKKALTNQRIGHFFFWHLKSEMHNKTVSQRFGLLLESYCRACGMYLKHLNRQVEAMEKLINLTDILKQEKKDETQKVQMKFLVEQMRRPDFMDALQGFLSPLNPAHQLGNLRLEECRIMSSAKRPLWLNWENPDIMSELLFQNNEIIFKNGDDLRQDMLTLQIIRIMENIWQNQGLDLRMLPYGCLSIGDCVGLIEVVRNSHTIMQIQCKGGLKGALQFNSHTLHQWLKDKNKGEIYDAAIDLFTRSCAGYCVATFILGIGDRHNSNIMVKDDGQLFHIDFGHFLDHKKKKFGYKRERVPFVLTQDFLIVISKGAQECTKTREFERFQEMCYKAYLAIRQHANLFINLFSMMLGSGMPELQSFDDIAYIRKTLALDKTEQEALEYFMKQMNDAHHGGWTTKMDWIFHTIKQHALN
# T1 sequence (P27986 whole entry partner): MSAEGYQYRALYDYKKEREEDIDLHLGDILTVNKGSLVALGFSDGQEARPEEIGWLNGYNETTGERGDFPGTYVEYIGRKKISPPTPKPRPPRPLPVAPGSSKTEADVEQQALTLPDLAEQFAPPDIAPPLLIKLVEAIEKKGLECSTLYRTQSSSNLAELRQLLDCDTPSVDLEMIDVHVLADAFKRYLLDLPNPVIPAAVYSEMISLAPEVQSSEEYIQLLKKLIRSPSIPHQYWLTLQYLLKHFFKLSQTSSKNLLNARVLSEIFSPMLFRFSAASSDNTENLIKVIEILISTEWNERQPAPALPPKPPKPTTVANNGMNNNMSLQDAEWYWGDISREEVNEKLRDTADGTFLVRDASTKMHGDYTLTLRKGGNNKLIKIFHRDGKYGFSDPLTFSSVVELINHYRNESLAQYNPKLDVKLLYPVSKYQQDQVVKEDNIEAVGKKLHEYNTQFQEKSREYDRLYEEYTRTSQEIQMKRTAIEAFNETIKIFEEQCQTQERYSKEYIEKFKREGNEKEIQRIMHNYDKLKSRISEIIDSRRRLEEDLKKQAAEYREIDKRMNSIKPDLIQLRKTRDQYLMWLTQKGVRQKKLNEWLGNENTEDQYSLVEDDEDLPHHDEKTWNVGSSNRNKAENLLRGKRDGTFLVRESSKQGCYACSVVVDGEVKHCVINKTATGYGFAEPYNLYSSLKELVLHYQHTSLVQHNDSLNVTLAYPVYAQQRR
smiles,measurement,setting,value
CCN1CCN(c2ccc(Nc3cc(Nc4cccc5c4N(C(C)=O)CC5)ccn3)cc2)CC1 [Compound 1938],plasma membrane PIP3 (biosensor),[1],acute plasma membrane-associated PIP3 production
same,Kd,[2],36 ± 5 µM
